Where “and” joins values, the source holds several entries; their conditions need not be identical. Equal entries are not always repeated. Entries after “also recorded” stand apart in the source; their conditions may differ.
Tests used:
COVID-19 [1] = assay: COVID-19 course in CLARIFY-MS and MAGNIFY-MS patients (case reports); type: in vivo, human
Source text: Disease course is reported for each of the 3 patients with respect to severity of symptoms, confirmatory status of COVID-19, hospitalisation requirement and recovery status.
Further to the overall outcome for each of the 3 patients from the phase IV studies CLARIFY-MS and MAGNIFY-MS, data on file includes some detail regarding extent and nature of symptoms COVID-19 and concomitant diseases and medications (Table 15).
Aside from COVID-19, no other adverse events or relevant concomitant diseases and medications are reported for Patient 3.

clinical = conditions: human, plasma, po, 10 mg
[2] = TEAEs of viral and bacterial infections in patients with Grade ≥3 lymphopenia, by age; type: in vivo, human; conditions: for incidence of bronchitis / incidence of herpes zoster / incidence of pneumonia / incidence of respiratory tract infection: Grade ≥3 lymphopenia; for overall incidence of TEAEs of viral and bacterial infections: Weeks 0-96, Grade ≥3 lymphopenia
Protocol: The definitions used for before, during, and after lymphopenia were: before (before the start date of the first lymphopenia Grade ≥3), during (on or after the start date of the first lymphopenia up and including to the last date of the last lymphopenia), and after (after the end date of the last lymphopenia). The incidence of TEAEs were summarized by Preferred Term (PT) and were coded according to the MedDRA dictionary Version 20.0. All analyses were performed using Statistical Analysis Software (SAS®), Version 9.4 or higher.

[3] = human, in vivo
[4] = test system: Influenza strain Victoria (Colorado/B); assay: Hemagglutination inhibition (HAI) antibody titer, Victoria (Colorado/B); type: in vivo, influenza B virus; conditions: 12 patients
COVID-19 [5] = assay: COVID-19 cases in cladribine tablets treated MS patients (Merck KGaA Global Patient Safety Database); type: in vivo, human
Protocol: On this date, there were 46 patients with confirmed or suspected COVID-19 within the safety database. Patient age was available for 35 patients, with a range of 22-67 years. There were 26 females, 12 males, and 8 patients for whom gender was not reported. Cases were defined as confirmed if a confirmatory diagnostic test was reported as positive. If no confirmatory test was performed or reported, then cases were described as suspected. […] Cases were designated as serious if they fulfilled the criteria of hospitalized, considered to be life-threatening, or medically significant. In keeping with usual pharmacovigilance practices, outcome was classified as recovered, recovering, not recovered, fatal, or not reported.

[6] = test system: Influenza strain Yamagata (Phuket/B); assay: Hemagglutination inhibition (HAI) antibody titer, Yamagata (Phuket/B); type: in vivo, influenza B virus; conditions: 12 patients
[7] = test system: varicella zoster virus (VZV); type: in vivo; conditions: all time points examined, MAGNIFY patients
seasonal influenza = type: in vivo, influenza A and B
lymphocytes = assay: Absolute lymphocyte count (ALC) in vaccinated MAGNIFY-MS patients; type: in vivo, human
IgG and IgM = assay: Serum immunoglobulin levels (IgG, IgM) under cladribine tablets
[8] = test system: lymphocytes (ALC, CD19+ B, CD4+ T, CD8+ T); assay: Post hoc analysis of ALC, lymphocyte subsets and lymphopenia by age (CLARITY, CLARITY Extension, ORACLE-MS, PREMIERE)
Protocol: Assessments included incidence and severity of Grade ≥3 lymphopenia; severity of Grade ≥3 lymphopenia was defined based on the NCI CTCAE v3.0 toxicity grading system as ALC levels <500 cells/μL. The time to recover from Grade 3 lymphopenia to Grade ≤2 (ALC ≥500 cells/μL) and to Grade ≤1 (ALC ≥800 cells/μL) were also assessed. […] All assessments were performed for each baseline age group (≤50 years and >50 years).

[9] = Incidence rates of infections in the clinical trial program of cladribine tablets
[10] = test system: lymphocytes (ALC, CD19+ B, CD4+ T, CD8+ T); conditions: second treatment year (Giovannoni et al., 2010); cited from earlier work
[11] = Patient Canada VZV-70056800222530003, month 0, 9.7 wk after Shingrix, before first Mavenclad dose
[12] = Patient Canada VZV-70056800222530003, month 3, 23.0 wk after Shingrix, 13.3 wk after first Mavenclad dose

## Nc1nc(Cl)nc2c1ncn2[C@H]1C[C@H](O)[C@@H](CO)O1 [cladribine tablets, Cladribine]
COVID-19 [1]; BL (baseline), c1-c3 = Patient 1, 2 (CLARIFY-MS), 3 (MAGNIFY-MS)
  Lymphocyte counts: 1.48 G/L and 2.80 G/L and 2.39 G/L
COVID-19 [1]; M14 (January 2020), Patient 1
  Lymphocyte counts: 0.49 G/L
COVID-19 [1]; Uns v. (17 Mar. 2020), Patient 2
  Lymphocyte counts: 0.20 G/L
COVID-19 [1]; c1-c3 = Patient 1, 2, 3
  Adverse events: Asthmatic bronchitis and Tachycardia and None and Swollen glands and Angina pectoris and Poss. reaction of EBV -
  COVID-19 severity: SAE, Severe,; also recorded: Mild, not serious (no
clinical
  bioavailability: 45.6%
[2]; Age >50
  TEAEs of viral and bacterial infections during the Year 1 Grade ≥3 lymphopenia episode: 30%
  incidence of bronchitis: 10%
  incidence of herpes zoster: 13.3%
  incidence of pneumonia: 6.7%
  incidence of respiratory tract infection: 6.7%
[2]; Age >50 (1 patient)
  patients with TEAEs severe in intensity (pneumonia and bronchitis): 3.3%
[2]; Age >50 (16 patients)
  patients with TEAEs mild to moderate in intensity: 53.3%
[2]; Age ≤50
  TEAEs of viral and bacterial infections during the Year 1 Grade ≥3 lymphopenia episode: 21.5%
  incidence of bronchitis: 5.9%
  incidence of herpes zoster: 3.4%
  incidence of pneumonia: 1.0%
  incidence of respiratory tract infection: 1.5%
[2]; Age ≤50 (103 patients)
  patients with TEAEs mild to moderate in severity: 50.2%
[2]; Age >50 (17/30)
  overall incidence of TEAEs of viral and bacterial infections: 56.7%
[2]; Age ≤50 (105/205)
  overall incidence of TEAEs of viral and bacterial infections: 51.2%
[3]
  herpes zoster incidence: 0.83 episodes per 100 PY
  incidence rate of serious infections: 0.8 /100 PY
  incidence rate of total infections: 24.9 events per 100 patient-years (PY)
[4]
  2-fold change: 17%
  4-fold change: 8%
  Post-vacc seroprotection: 92%
  Pre-vacc seroprotection: 83%
COVID-19 [5]; 9/46 patients, min 0.24, max 1.2
  most recent lymphocyte count, median: 0.7 G/L
COVID-19 [5]; 21/46 patients
  median time to onset of COVID-19 from last dose: 180 days
  range of time to onset of COVID-19 from last dose: 3 to 559 days
COVID-19 [5]; confirmed cases
  COVID-19 cases medically significant: 1 cases
  COVID-19 cases requiring hospitalisation: 3 cases
  COVID-19 outcome: Not resolved: 1 cases
  COVID-19 outcome: Recovered: 8 cases
  COVID-19 outcome: Recovering: 2 cases
COVID-19 [5]; of 46 total cases
  confirmed COVID-19 cases: 18 cases
  suspected COVID-19 cases: 28 cases
COVID-19 [5]; of approximately 19,000 treated, as of 29 June 2020
  patients with confirmed or suspected COVID-19: 46 patients
COVID-19 [5]; patient from the Netherlands
  lymphocyte count between most recent course and onset of COVID-19: 0.87 G/L
COVID-19 [5]; suspected cases
  COVID-19 cases medically significant: 1 cases
  COVID-19 cases requiring hospitalisation: 1 cases
  COVID-19 outcome: Recovered: 6 cases
  COVID-19 outcome: Recovering: 5 cases
COVID-19 [5]; suspected or confirmed
  COVID-19 cases that received mechanical ventilation: None
  COVID-19 deaths: no deaths
  COVID-19 symptoms in the majority of patients: mild to moderate respiratory symptoms
[6]
  2-fold change: 17%
  4-fold change: 0%
  Post-vacc seroprotection: 92%
  Pre-vacc seroprotection: 75%
[7]
  post-vaccination antibody titer against VZV, protective titer: ≥ 100 IU/L
Seasonal influenza; 8 patients
  proportion of previously seropositive patients (HAI≥40) with ≥2-fold increase against at least 1 strain: 87.5%
  proportion of previously seropositive patients (HAI≥40) with ≥4-fold increase against at least 1 strain: 37.5%
Seasonal influenza; all vaccinated patients
  post-vaccination seroprotection, all Influenza strains: 92-100%
Seasonal influenza; in vivo
  rate of 2-fold change in AB titer, all strains: 17-67%
lymphocytes; Patient 70056800222010002, month 14, 1 month after vaccination
  absolute lymphocyte levels: 700 cells/µL
lymphocytes; Patient 70056800227010005, Month 6
  absolute lymphocyte levels: 900 cells/µL
lymphocytes; Patient Australia VZV-70056800221260001, month 2, 21.0 wk after Zostavax, 11.1 wk after first Mavenclad dose
  ALC: 960 cells/μL
lymphocytes; Patient Canada VZV-70056800222530003, Scr, 1.1 wk after Shingrix, 8.6 wk before first Mavenclad dose
  ALC: 2,100 cells/μL
lymphocytes; Patient Canada VZV-70056800222530003, month 2, 18.0 wk after Shingrix, 8.3 wk after first Mavenclad dose
  ALC: 800 cells/μL
lymphocytes; Patient Canada VZV-70056800222530003, month 12
  ALC: 1,110 cells/μL
lymphocytes; Patient Finland VZV-70056800221620004, month 2, 14.3 wk after Zostavax, 7.9 wk after first Mavenclad dose
  ALC: 670 cells/μL
lymphocytes; Shingrix case
  lymphocytes after first treatment course: 800 cells/µL
IgG and IgM; 1, 2, 3, 6 and 12 month
  IgG immunoglobulin levels vs baseline: comparable to baseline
IgG and IgM; Month 3
  IgG, change vs baseline: +10%
  IgM, change vs baseline: −5%
IgG and IgM; Month 6
  IgG, change vs baseline: +11%
  IgM, change vs baseline: −13%
IgG and IgM; Month 12
  IgG, change vs baseline: +3%
  IgM, change vs baseline: +21%
IgG and IgM; Patient 70056800222520001
  IgG levels: not affected
IgG and IgM; Patient 70056800227010005, any timepoint after treatment
  IgG immunoglobulin levels: not affected
IgG and IgM; Patient Australia VZV-70056800221260001, month 3, 24.6 wk after Zostavax, 14.7 wk after first Mavenclad dose
  IgM: 59 mg/dL
IgG and IgM; [11]
  IgG: 1,410 mg/dL
  IgM: 190 mg/dL
IgG and IgM; [12]
  IgG: 1,510 mg/dL
  IgM: 166 mg/dL
IgG and IgM; month 12, still in the normal range
  IgM levels: slightly decreased
IgG and IgM; various time points
  immunoglobulin numbers after cladribine treatment: not decreased
[8]; Age >50
  Median (range) time to recovery from the first Grade ≥3 lymphopenia to Grade ≤1: 6.06 (range: 0.2-46.5) months
  Median (range) time to recovery from the first Grade ≥3 lymphopenia to Grade ≤2: 1.54 (range: 0.2-29.9) months
  mean (SD) number of episodes of recovery from Grade ≥3 lymphopenia to Grade ≤1 per patient: 1.3 (0.5)
[8]; Age ≤50
  Median (range) time to recovery from the first Grade ≥3 lymphopenia to Grade ≤1: 5.49 (range: 0.2-88.4) months
  Median (range) time to recovery from the first Grade ≥3 lymphopenia to Grade ≤2: 1.18 (range: 0.2-22.3) months
  mean (SD) number of episodes of recovery from Grade ≥3 lymphopenia to Grade ≤1 per patient: 1.2 (0.5)
[8]; Week 9, Age >50
  ALC decrease from baseline: 52.4%
  CD8+ T lymphocytes decrease from baseline: 43.4%
  CD19+ B lymphocytes decrease from baseline: 93.8%
  median (range) ALC at Year 1 nadir: 0.9 (0.3-2.5) ×10^9 cells/L
[8]; Week 9, Age ≤50
  ALC decrease from baseline: 43.5%
  CD19+ B lymphocytes decrease from baseline: 90.2%
  median (range) ALC at Year 1 nadir: 1.05 (0.2-6.7) ×10^9 cells/L
[8]; Week 60, Age ≤50
  CD4+ T lymphocytes decrease from baseline: 66.4%
[8]; Week 72, Age >50
  CD4+ T lymphocytes decrease from baseline: 73.7%
[8]; Week 72, Age ≤50
  CD8+ T lymphocytes decrease from baseline: 41.8%
[8]; Weeks 0-96, Age >50 (30/110)
  incidence of Grade ≥3 lymphopenia: 27.2%
[8]; Weeks 0-96, Age ≤50 (205/813)
  incidence of Grade ≥3 lymphopenia: 25.2%
[8]; Year 1
  Grade 4 lymphopenia episodes: No Grade 4 lymphopenia episodes
[8]; Year 2, Age >50
  Grade ≥3 lymphopenia, patients: 20.0%
[8]; Year 2, Age ≤50
  Grade ≥3 lymphopenia, patients: 18.7%
[8]; Year 2, aged >50 years (1 patient)
  Grade 4 lymphopenia, patients: 1.0%
[8]; Year 2, aged ≤50 years (2 patients)
  Grade 4 lymphopenia, patients: 0.3%
[8]; Year 2 nadir, Age >50
  ALC decrease from baseline: 58.2%
[8]; Year 2 nadir, Age ≤50
  ALC decrease from baseline: 55.4%
[8]; after last dose in treatment year 2
  recovery of ALC and lymphocyte subsets (CD19+ B and CD4+ T) to normal levels: 30-43 weeks
[8]; treatment Year 1, Age >50
  Grade ≥3 lymphopenia, patients: 10.0%
[8]; treatment Year 1, Age ≤50
  Grade ≥3 lymphopenia, patients: 8.3%
[9]; lymphopenia grade 0-2
  influenza incidence: 2.75 cases per 100 PY
[9]; lymphopenia grade 3-4
  influenza incidence: 3.35 /100 PY
[10]
  median ALC: above 800 cells/mL
